Measured values from patent US20250213561A1, “SELECTIVE HYPOTHALAMUS PERMEABLE HDAC6 INHIBITORS FOR TREATMENT OF LEPTIN-RESISTANT OBESITY” (The Children’s Medical Center Corporation, priority 2022, published 2025).
Entries after “also recorded” stand apart in the source; their conditions may differ.

Tests used:
DIO mice [1] = experiment: Chronic treatment of DIO mice (body weight, food intake, DEXA, glucose homeostasis); format: in vivo; conditions: 14 days, oral administration
[2] = in vivo; cited from earlier work
HDAC6 = HDAC6 (Homo sapiens (Human), UniProt Q9UBN7); conditions: unit printed as AM; unit of the source corrected; cited from earlier work
HDAC6, sequence (Q9UBN7 whole entry, species assumed): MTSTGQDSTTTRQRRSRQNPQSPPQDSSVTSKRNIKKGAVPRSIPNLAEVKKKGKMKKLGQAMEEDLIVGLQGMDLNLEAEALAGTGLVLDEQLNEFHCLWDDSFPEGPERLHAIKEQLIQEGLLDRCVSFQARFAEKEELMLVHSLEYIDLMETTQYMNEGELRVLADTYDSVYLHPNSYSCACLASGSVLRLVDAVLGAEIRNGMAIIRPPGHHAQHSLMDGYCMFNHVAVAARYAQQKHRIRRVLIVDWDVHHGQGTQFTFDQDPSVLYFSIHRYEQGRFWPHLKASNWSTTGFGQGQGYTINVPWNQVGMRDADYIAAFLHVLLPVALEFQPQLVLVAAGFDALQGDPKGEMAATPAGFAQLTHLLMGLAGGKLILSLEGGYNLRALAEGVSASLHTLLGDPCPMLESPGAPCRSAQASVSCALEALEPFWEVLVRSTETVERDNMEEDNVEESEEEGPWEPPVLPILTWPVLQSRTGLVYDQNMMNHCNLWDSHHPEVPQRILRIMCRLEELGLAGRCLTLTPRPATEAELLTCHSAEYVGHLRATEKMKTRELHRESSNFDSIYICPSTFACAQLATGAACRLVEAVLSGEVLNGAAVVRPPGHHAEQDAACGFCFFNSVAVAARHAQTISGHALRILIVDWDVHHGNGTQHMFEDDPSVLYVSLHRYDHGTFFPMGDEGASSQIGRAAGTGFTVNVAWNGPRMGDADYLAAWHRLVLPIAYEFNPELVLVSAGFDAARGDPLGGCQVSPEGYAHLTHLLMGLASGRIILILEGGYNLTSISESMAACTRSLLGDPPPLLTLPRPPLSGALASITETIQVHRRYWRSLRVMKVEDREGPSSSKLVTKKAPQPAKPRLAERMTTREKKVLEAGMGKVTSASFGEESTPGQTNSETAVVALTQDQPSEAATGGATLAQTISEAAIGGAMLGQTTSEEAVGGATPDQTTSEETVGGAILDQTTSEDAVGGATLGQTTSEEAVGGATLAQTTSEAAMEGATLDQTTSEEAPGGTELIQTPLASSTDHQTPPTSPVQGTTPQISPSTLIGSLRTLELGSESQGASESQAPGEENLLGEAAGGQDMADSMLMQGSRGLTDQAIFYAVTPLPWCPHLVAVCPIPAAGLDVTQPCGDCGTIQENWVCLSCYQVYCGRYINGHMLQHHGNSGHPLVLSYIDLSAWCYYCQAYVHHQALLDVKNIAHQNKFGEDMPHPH

DIO mice [3] = experiment: Chronic treatment of DIO mice (body weight, food intake, DEXA, glucose homeostasis); format: in vivo; conditions: high fat diet induced mice
Procedure: DIO mice were treated with ACY775 (10 mg/kg/day, i.p.) for 3 weeks. Daily body weight (g) of DIO mice treated with vehicle (n=17) or ACY775 (n=17) during 3 weeks of treatment was determined. Daily food intake (g) during 3 weeks of vehicle or ACY775 treatment was assessed. 24 hours' food intake per mouse during the first week of vehicle or ACY775 treatment was determined. Serum leptin (ng/ml) levels after 3 weeks of vehicle (n=24) or ACY775 (n=24) treatment was assessed. Lean mass (g), fat mass (g) and fat percentage (%) after 3 weeks of vehicle (n=17) or ACY775 (n=17) treatment measured by Dual-energy X-ray absorptiometry (DEXA) scan. DEXA scans were performed in two different cohorts. Glucose tolerance test (GTT) after 1 week of vehicle (n=33) or ACY775 (n=26) treated DIO mice was assessed. Area of curve (AOC) analysis for GTT was performed. Blood glucose (mg/dl) levels after 1 week of vehicle (n=17) or ACY775 (n=16) were assessed in treated DIO mice. Insulin tolerance test (ITT) was performed after 2 weeks of vehicle (n=31) or ACY775 (n=21) treatment of DIO mice. Serum insulin (ng/ml) levels were measured after 3 weeks of vehicle (n=22) or ACY775 (n=21) in treated DIO mice. A homeostatic model assessment of insulin resistance (HOMA-IR) was analyzed after 3 weeks of vehicle (n=14) or ACY775 (n=13) treated DIO mice.
Food intake was analyzed hourly until 3:00 am. […] DEXA scans were performed in two different cohorts.
DIO mice then were treated with ricolinostat (50 mg/kg, i.p.) for 3 weeks. Daily body weight (g), daily food intake (g), serum leptin (ng/ml) levels after 3 weeks of vehicle (n-8) or ricolinostat (n=8) treatment, lean mass (g); fat mass and fat percentage (%) after 3 weeks of vehicle (n=16) or ricolinostat (n=17) treatment measured by DEXA scan were determined.
Blood glucose (mg/dl) levels were measured after 1 week of vehicle (n=16) or ricolinostat (n=16) treated DIO mice. GTT after 1 week of vehicle (n=17) or ricolinostat (n=16) treatment of DIO mice was assessed. AOC analysis for GTT was performed. ITT after 2 weeks of vehicle (n=17) or ricolinostat (n=16) treated DIO mice was measured. Serum insulin (ng/ml) levels after 3 weeks of vehicle (n=8) or ricolinostat (n=8) treatment were measured in DIO mice. Liver sections from 3 weeks of vehicle or ricolinostat treated DIO mice were stained by H&E.
DIO mice then were treated with bavarostat (10 mg/kg, i.p.) for 3 weeks and daily body weight (g) of DIO mice treated with Veh (n=9) or bavarostat (n=9) measured during the three weeks of treatment period. Daily food intake (g) during 3 weeks of Veh or bavarostat treatment was also measured.
ACY1083 was administered to DIO mice as described in Example 3.

HDAC6 in AgRP neurons = experiment: DIO mice with HDAC6 depleted in AgRP neurons (HDAC6^Agrp-Δ); format: in vivo; conditions: HDAC6^Agrp-Δ versus HDAC6^WT DIO mice
Procedure: Design, validation, and stereotaxic injection of AAV viral vector carrying the guide RNAs targeting the mouse HDAC6 genomic locus. Three designed sgRNAs were concatenated and constructed into an AAV vector carrying a cre-enabled mCherry fluorescent marker.
Following the bilateral injection of AAV-sgHDAC6 into the arcuate nucleus of Agrp-ires-cre::LSL-Cas9-GFP (Agrp-Cre^+/−::Cas9^+/−) or control LSL-Cas9-GFP (Cas9^+/−) mice, immunostaining to detect the expression of mCherry and GFP was performed. AAV-sg-HDAC6 injected Agrp-Cre^+/−::Cas9^+/− (HDAC6^Agrp-Δ) and Cas9^+/−(HDAC6^WT) DIO mice (n=7 for each group) were fasted for 24 hours, and injected with ACY775 (10 mg/kg. i.p). Hourly total dark cycle food intake (g) (n=7 for each group) of these mice after ACY775 injection was measured. Body weight of AAV-sg-HDAC6 injected HDAC6^Agrp-Δ (n=11) and HDAC6^WT (n=6) mice were measured during 3 weeks of ACY775 (10 mg/kg/day, i.p.) treatment. Daily average food intake of HDAC6^Agrp-Δ (n=11) and HDAC6^WT (n=6) mice was measured during 3 weeks of ACY775 (10 mg/kg/day, i.p.) treatment. 24-hour food intake average of HDAC6^Agrp-Δ and HDAC6^WT mice during the 3 weeks of ACY775 treatment was assessed. Serum leptin level (ng/ml) of HDAC6^Agrp-Δ and HDAC6^WT mice after 2 weeks of ACY775 treatment (n=13 for HDAC6^WT and n=18 for HDAC6^Agrp-Δ) was measured. Lean mass (g); fat mass; and fat percentage (%) of HDAC6^Agrp-Δ and HDAC6^WT DIO mice after 3 weeks of ACY775 treatment was measured by DEXA scan. The HDAC6 inhibitor responsive neurons in the dorsomedial hypothalamus (DMH) were assessed. Immunostaining and quantification of c-Fos expression was performed in the DMH of DIO mice following one-time ACY775 treatment (10 mg/kg, i.p.).

DIO mice [4] = conditions: diet-induced obese mice; cited from earlier work
[5] = Brain/plasma ratio and brain or hypothalamus penetration; conditions: in vivo
HDAC6-KO DIO mice = experiment: Chronic treatment of DIO WT versus HDAC6 KO mice; format: in vivo; conditions: DIO mice

SMILES	body weight (DIO mice [1])	brain penetrance / BBB permeability [2]	HDAC6 IC50 (HDAC6)	food intake and total body fat mass (summary) (DIO mice [3])	anti-obesity effects on chronic treatment (HDAC6 in AgRP neurons)	anti-obesity effects reported by Cakir et al. (DIO mice [4])	penetrance into the hypothalamus [5]	blood glucose, serum insulin and leptin levels, WT versus HDAC6 KO (HDAC6-KO DIO mice)	fat mass and fat %, WT versus HDAC6 KO (HDAC6-KO DIO mice)	food intake, WT versus HDAC6 KO (HDAC6-KO DIO mice)	glucose tolerance and insulin sensitivity (GTT, ITT), WT versus HDAC6 KO (HDAC6-KO DIO mice)	lean mass, WT versus HDAC6 KO (HDAC6-KO DIO mice)	body weight, WT versus HDAC6 KO (HDAC6-KO DIO mice; 3 weeks, ACY775 10, ACY738 50, Tubastatin A 25 mg/kg/day i.p.)
O=C(NO)c1cnc(NC2(c3ccccc3)CCC(F)(F)CC2)nc1 [ACY1083]	significant decrease in body weight; also recorded: reduced body weight	brain-penetrating	3 nM	significant reduction of food intake and total body fat mass									
CN1CCc2c(c3ccccc3n2Cc2ccc(C(=O)NO)cc2)C1 [tubastatin A]		extremely low			did not change Tubastatin A's effects on suppressing feeding or body weight	reduce food intake, fat mass, hepatic steatosis and improve systemic glucose homeostasis	neither of which have high penetrance into the hypothalamus	all reduced equally in the wt and HDAC6 KO group	significantly lower in both wt and HDAC6 KO groups	reduced similarly	improved glucose tolerance and increased insulin sensitivity in both wt and the HDAC6 KO mice	not different	reduced the body weight of the HDAC6 KO mice the same as the wt mice
